# Measured values from US6399629B1, “Efflux pump inhibitors” (priority 1998, dated 2002).
# Test system: Pseudomonas aeruginosa PAM1001
# Experiment: checkerboard assay (broth microdilution): levofloxacin MIC in presence of efflux pump inhibitor
# Format: cell-based
# Procedure, shortened: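 Reduction of levofloxacin MIC by an efflux pump inhibitor measured against Pseudomonas aeruginosa PAM1001. Each microdilution well held a unique combination of levofloxacin and inhibitor (max 40 μg/mL) in MHB, inoculum 5×10^5 CFU/mL. Readout after 20 h, 35° C: OD650 plus visual inspection.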
Compound,"Levofloxacin MIC Against P. aerugiuosa PAM1001 in Presence of Efflux Pump Inhibitor (EPI), Minimum Inhibitory Concentration (EPI Conc. 0 μg/mL) [µg/mL]","Levofloxacin MIC Against P. aerugiuosa PAM1001 in Presence of Efflux Pump Inhibitor (EPI), Minimum Inhibitory Concentration (EPI Conc. 0.625 μg/mL) [µg/mL]","Levofloxacin MIC Against P. aerugiuosa PAM1001 in Presence of Efflux Pump Inhibitor (EPI), Minimum Inhibitory Concentration (EPI Conc. 1.25 μg/mL) [µg/mL]","Levofloxacin MIC Against P. aerugiuosa PAM1001 in Presence of Efflux Pump Inhibitor (EPI), Minimum Inhibitory Concentration (EPI Conc. 2.5 μg/mL) [µg/mL]","Levofloxacin MIC Against P. aerugiuosa PAM1001 in Presence of Efflux Pump Inhibitor (EPI), Minimum Inhibitory Concentration (EPI Conc. 5 μg/ mL) [µg/mL]","Levofloxacin MIC Against P. aerugiuosa PAM1001 in Presence of Efflux Pump Inhibitor (EPI), Minimum Inhibitory Concentration (EPI Conc. 10 μg/mL) [µg/mL]","Levofloxacin MIC Against P. aerugiuosa PAM1001 in Presence of Efflux Pump Inhibitor (EPI), Minimum Inhibitory Concentration (EPI Conc. 20 μg/mL) [µg/mL]","Levofloxacin MIC Against P. aerugiuosa PAM1001 in Presence of Efflux Pump Inhibitor (EPI), Minimum Inhibitory Concentration (EPI Conc. 40 μg/mL) [µg/mL]"
"CC(C)C[C@H](COc1ccc2ccccc2c1)NC(=O)[C@H]1C[C@H](NC(=O)CN)CN1 [Compound M49, (2R,4S)-4-(2-Aminoacetamideo)-N-[(1R)-3-methyl-1-[(2-naphthyloxy)methyl]butyl]-2-pyrrolidinecarboxamide]",4,4,4,4,4,1,0.125,0.06
"CC(C)C[C@H](COc1cnc2ccccc2c1)NC(=O)[C@H]1C[C@H](CN)CN1 [Compound M59, (2R,4R)-4-(Aminomethyl)-N-[(1R)-3-methyl-1-[(3-quiolyloxy)methyl]butyl]-2-pyrrolidinecarboxamide]",4,4,4,4,4,1,0.5,0.125
"(2R,4S)-4-[(2R)-2-Aminopropionamido]-N-(2-phenylethyl)-N-(3-quinolylcarbamoyl)ethyl]-2-pyrrolidinecarboxamide [Compound M42]",4,4,4,4,4,0.50,0.06,0.06
"NCC(=O)N[C@H]1CN[C@H](C(=O)N[C@@H](CCc2ccccc2)c2nc3ccccc3o2)C1 [Compound M85, (2S,4R)-4-(2-Aminoacetamido)-N-[(1S)-1-(2-benzoxazoiyl)-3-phenylpropyl]-2-pyrrolidinecarboxamide]",4,4,4,4,4,2,0.50,0.03
